Data reported in patent US12473282B2, “Biphenyl fluorine double bond derivative, preparation method therefor, and pharmaceutical application thereof” (Abbisko Therapeutics Co., Ltd., priority 2020, dated 2025).

How the values were obtained:
[1] = Pharmacokinetic assay in mice; assay type: in vivo; settings: male, mouse; ICR mice, PO 10 mg/kg, plasma, original compound detected
Protocol: III. Pharmacokinetic Assay in Mice
The purpose of this study was to study the pharmacokinetic behaviors of some compounds of the present invention, and administration routes were: per oral administration (PO) to ICR mice at a dose of 10 mg/kg.
The compounds used in this test came from the compounds of the specific examples of the present invention.
ICR mice, male, N=3, with the original source of Shanghai Sippr-BK Laboratory Animal Co. Ltd.
2.3 Preparation and Administration of Drug
The compounds were weighed, and dissolved in a solvent of 0.5% SDS+0.5% CMCNa. The mixture solutions were mixed well by shaking and ultrasonic treatment to obtain colorless clear solutions. The solutions were orally administered to nine mice after an overnight fast. The dosage of administration was 10 mg/kg.
1) With about 90 μL/time point, blood was drawn from the submaxillary vein, and heparin sodium was added for anticoagulation. The blood samples were placed onto the ice, and were centrifuged (centrifugation conditions: 8000 r/min, 6 min, 2-8° C.) within 1 hr to obtain plasmas.
2) The time points for blood sampling were at 0 hr, 0.25 hr, 0.5 hr, 1 hr, 2 hrs, 4 hrs, 6 hrs, 8 hrs and 24 hrs after administration. The samples were stored in a refrigerator at −20° C.
3) 40 μL of plasma sample was added to 160 μL of cold acetonitrile containing an internal standard, and the mixture solution was vortexed for 3 min and centrifuged at 11,000 r/min for 5 min.
4) 100 μL of supernate was taken and added to 100 μL of water, and 5 μL of the sample was taken and analyzed by LC/MS/MS.
Only the original compounds were analyzed for the compounds from the examples of the present invention and the reference compound from Example 158 of WO2020011209A1; and both the original compounds and possible products of ester hydrolysis, namely Example 217, were analyzed for the reference compound from Example 216 of WO2020011209A1.

[2] = Jurkat reporter gene cellular assay; assay type: cell-based; settings: Homo sapiens; Jurkat/NF-κB-luc/PD1 + Raji-PD-L1 coculture, OKT3 1 μg/mL, 6 hrs, activation fold; read-out: Cell Activity EC50
Method in brief: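 Jurkat cells stably expressing human PD-1 and NF-κB-luciferase co-cultured with PD-L1-expressing Raji cells (5×10^4 each/well) under OKT3 (1 μg/mL final) with compound. Raji cells preincubated 20 min; luminescence read 6 h after Jurkat addition. EC50 from non-linear regression of fold activation over DMSO.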

[3] = target: interaction between PD-1 and PD-L1 (Homo sapiens (Human), UniProt Q9NZQ7); experiment: PD1-PDL1 HTRF binding activity test (Cisbio PD-1/PD-L1 binding assay kit)
interaction between PD-1 and PD-L1, sequence (Q9NZQ7 19-238): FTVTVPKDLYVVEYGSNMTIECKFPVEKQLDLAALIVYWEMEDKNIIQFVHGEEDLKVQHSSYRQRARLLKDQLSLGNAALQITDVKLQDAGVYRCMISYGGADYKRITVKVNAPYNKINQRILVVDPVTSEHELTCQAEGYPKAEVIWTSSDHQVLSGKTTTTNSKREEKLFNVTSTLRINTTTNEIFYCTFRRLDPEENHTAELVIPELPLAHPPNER
Protocol: I. PD1-PDL1 HTRF Binding Activity Test
The effect of compounds of the examples of the present invention on the interaction between PD-1 and PD-L1 was determined by the PD-1/PD-L1 binding assay kit from Cisbio (#64ICP01PEG or 64ICP01PEH). The detailed experimental process was as follows: • 1. Pre-diluted compound solution, 4 μL of Tag1-PD-L1 and 4 μL of Tag2-PD1 were added to each well of a 384-well plate; • 2. After the mixture was incubated at room temperature for 15 min, 5 μL of anti-Tag1-Eu3+ antibody and 5 μL of anti-Tag2-XL665 antibody were then added; • 3. After incubated for 2 hrs at room temperature or overnight at 4° C., plates were read on Envision of Pelkin Elmer; and readings at 665 nm and 620 nm were recorded, and the ratio of the two readings was taken as a reading for each well; • 4. The reading of each well after compound treatment was compared with the reading of DMSO treated wells to obtain the percent inhibition of the compound; • 5. IC50 values of compounds and positive compounds of the examples of the present invention were determined by non-linear regression analysis of percent inhibition at different compound concentrations. II. Jurkat Reporter Gene Cellular Assay

| AUC(0-t) [1] [ng·h/mL] | Cmax [1] [ng/mL] | MRT [1] [h] | Tmax [1] [h] | half-life [1] [h] | EC50 [2] [nM] | IC50 [3] [nM] | Compound |
| --- | --- | --- | --- | --- | --- | --- | --- |
| 2490 | 323 | 8.3 | 4 | 5.2 | 258 | 0.688 | Cc1c(/C=C(\F)c2nc3c(n2C)CCN(C(C)C)C3)cccc1-c1cccc(NC(=O)c2nc3c(n2C)CCN(CCC24CCC(C(=O)O)(CC2)C4)C3)c1C [Example 1, (Z)-4-(2-(2-((3′-(2-fluoro-2-(5-isopropyl-1-methyl-4,5,6,7-tetrahydro-1H-imidazo[4,5-c]pyridin-2-yl)vinyl)-2,2′-dimethyl-[1,1′-biphenyl]-3-yl)carbamoyl)-1-methyl-1,4,6,7-tetrahydro-5H-imidazo[4,5-c]pyridin-5-yl)ethyl)bicyclo[2.2.1]heptane-1-carboxylic acid] |
| – | – | – | – | – | 179 | 0.31 | COc1cc(/C(F)=C/c2cccc(-c3cccc(NC(=O)c4nc5c(n4C)CCN(CCC46CCC(C(=O)O)(CC4)C6)C5)c3Cl)c2Cl)ncc1CN[C@H]1CC[C@@H](O)CC1 [Example 40, 4-(2-(2-((2,2′-dichloro-3′-((Z)-2-fluoro-2-(5-((((1S,4S)-4-hydroxycyclohexyl)amino)methyl)-4-methoxypyridin-2-yl)vinyl)-[1,1′-biphenyl]-3-yl)carbamoyl)-1-methyl-1,4,6,7-tetrahydro-5H-imidazo[4,5-c]pyridin-5-yl)ethyl)bicyclo[2.2.1]heptane-1-carboxylic acid] |
| – | – | – | – | – | 86.7 | 0.249 | COc1cc(/C(F)=C/c2cccc(-c3cccc(NC(=O)c4nc5c(n4C)CCN(CCC46CCC(C(=O)O)(CC4)C6)C5)c3Cl)c2Cl)ncc1CNC(C)C [Example 41, (Z)-4-(2-(2-((2,2′-dichloro-3′-(2-fluoro-2-(5-((isopropylamino)methyl)-4-methoxypyridin-2-yl)vinyl)-[1,1′-biphenyl]-3-yl)carbamoyl)-l-methyl-1,4,6,7-tetrahydro-5H-imidazo[4,5-c]pyridin-5-yl)ethyl) bicyclo[2.2.1]heptane-1-carboxylic acid] |
| 15100 | 1010 | 7.4 | 2 | 4 | 46.2 | 0.232 | COc1cc(/C(F)=C/c2cccc(-c3cccc(NC(=O)c4nc5c(n4C)CCN(CCC46CCC(C(=O)O)(CC4)C6)C5)c3Cl)c2Cl)ncc1CN1CCC(C)(O)C1 (stereo not shown) [Example 49, (Z)-4-(2-(2-((2,2′-dichloro-3′-(2-fluoro-2-(5-((3-hydroxy-3-methylpyrrolidin-1-yl)methyl)-4-methoxypyridin-2-yl)vinyl)-[1,1′-biphenyl]-3-yl)carbamoyl)-1-methyl-1,4,6,7-tetrahydro-5H-imidazo[4,5-c]pyridin-5-yl)ethyl)bicyclo[2.2.1]heptane-1-carboxylic acid] |
| – | – | – | – | – | 54 | 0.731 | COc1cc(/C(F)=C/c2cccc(-c3cccc(NC(=O)c4nc5c(n4C)CCN(CCC46CCC(C(=O)O)(CC4)C6)C5)c3Cl)c2Cl)ncc1CNC(C)(C)C [Example 50, (Z)-4-(2-(2-((3′-(2-(5-((tert-butylamino)methyl)-4-methoxypyridin-2-yl)-2-fluorovinyl)-2,2′-dichloro-[1,1′-biphenyl]-3-yl)carbamoyl)-1-methyl-1,4,6,7-tetrahydro-5H-imidazo[4,5-c]pyridin-5-yl)ethyl) bicyclo[2.2.1]heptane-1-carboxylic acid] |
| 1950 | 173 | 9.6 | 6 | 5 | 44.1 | 0.193 | COc1cc(/C(F)=C/c2cccc(-c3cccc(NC(=O)c4nc5c(n4C)CCN(CCC46CCC(C(=O)O)(CC4)C6)C5)c3Cl)c2Cl)ncc1CN1CCCC1 [Example 58, (Z)-4-(2-(2-((2,2′-dichloro-3′-(2-fluoro-2-(4-methoxy-5-(pyrrolidin-1-ylmethyl)pyridin-2-yl)vinyl)-[1,1′-biphenyl]-3-yl)carbamoyl)-1-methyl-1,4,6,7-tetrahydro-5H-imidazo[4,5-c]pyridin-5-yl)ethyl) bicyclo[2.2.1]heptane-1-carboxvlic acid] |
| – | – | – | – | – | 47.5 | 0.299 | COc1cc(/C(F)=C/c2cccc(-c3cccc(NC(=O)c4nc5c(n4C)CCN(CCC46CCC(C(=O)O)(CC4)C6)C5)c3Cl)c2Cl)ncc1CN1CC[C@H](O)C1 [Example 59, (S,Z)-4-(2-(2-((2,2′-dichloro-3′-(2-fluoro-2-(5-((3-hydroxypyrrolidin-1-yl)methyl)-4-methoxypyridin-2-yl)vinyl)-[1,1′-biphenyl]-3-yl)carbamoyl)-1-methyl-1,4,6,7-tetrahydro-5H-imidazo[4,5-c]pyridin-5-yl)ethyl)bicyclo[2.2.1]heptane-1-carboxylic acid] |
| 590 | 442 | 2 | 0.5 | 1.1 | 50.6 | 0.186 | COc1cc(/C(F)=C/c2cccc(-c3cccc(NC(=O)c4nc5c(n4C)CCN(CCC46CCC(C(=O)O)(CC4)C6)C5)c3Cl)c2Cl)ncc1CN1CC[C@@H](C(=O)O)C1 [Example 73, (R,Z)-1-((6-(2-(3′-(5-(2-(4-carboxybicyclo[2.2.1]heptan-1-yl)ethyl)-1-methyl-4,5,6,7-tetrahydro-1H-imidazo[4,5-c]pyridine-2-carboxamido)-2,2′-dichloro-[1,1′-biphenyl]-3-yl)-1-fluorovinyl)-4-methoxypyridin-3-yl)methyl)pyrrolidine-3-carboxylic acid] |
| 2650 | 806 | 2.9 | 1.8 | 1.8 | 54.4 | 0.185 | COc1cc(/C(F)=C/c2cccc(-c3cccc(NC(=O)c4nc5c(n4C)CCN(CCC46CCC(C(=O)O)(CC4)C6)C5)c3Cl)c2Cl)ncc1CN1CC[C@@](C)(C(=O)O)C1 [Example 75, (R,Z)-1-((6-(2-(3′-(5-(2-(4-carboxybicyclo[2.2.1]heptan-1-yl)ethyl)-1-methyl-4,5,6,7-tetrahydro-1H-imidazo[4,5-c]pyridine-2-carboxamido)-2,2′-dichloro-[1,1′-biphenyl]-3-yl)-1-fluorovinyl)-4-methoxypyridin-3-yl)methyl)-3-methylpyrrolidine-3-carboxylic acid] |
